In patent US9949976B2, “Kinase inhibitor and use thereof” (Sihuan Pharmaceutical Holdings Group Ltd., priority 2013, dated 2018):

Columns and labels:
[1] = In vivo assay for blood brain barrier permeability in rat; settings: male, SD, 30 mg/kg, PO
Protocol: Test animal: male SD rat, 3 rats/test compound/time point, weight: 250-300 g/rat
After separate PO administration of control agent and compound 1, blood was collected by cardiac puncture at 2, 4, 24 and 48 h; about 8 ml whole blood was collected, and placed in a centrifuge tube containing K2EDTA anticoagulant agent; cerebrospinal fluid and brain tissue were also collected at the same time, 3 rats at each time point. The collected whole blood was centrifuged at 3000 r/min at 4° C. in a high speed centrifuge for 10 min to separate the plasma; and the plasma was stored in a refrigerator at −80° C. After sample collection, the concentrations of control agent and compound 1 in plasma, brain tissue and cerebrospinal fluid were determined, respectively.
The plasma samples of control agent and compound 1 were analyzed by precipitation of protein: the test samples were taken from the refrigerator (−80° C.), thawed at room temperature, and then vortexed for 3 min; to 30 μL plasma, 200 μL internal standard (acetonitrile solution containing 25 ng/mL PD0332991) was added; the resultant mixture was vortexed for 10 min at 1500 r/min, and centrifuged at 4000 r/min for 20 min; to 100 μL supernatant, 100 μL water was added; the resultant mixture was mixed homogeneously under vortexing and analyzed by LC-MS/MS.
The brain tissue and cerebrospinal fluid samples for control agent and compound 1 were analyzed by precipitation of protein: the test samples were taken from the refrigerator (−80° C.), thawed at room temperature, and then vortexed for 3 min; to 20 μL homogenated brain tissue sample, 200 μL internal standard (a solution of methanol and water at 1:1 containing 40 ng/mL dextromethorphan and 50 ng/mL dextrorphan) was added; the resultant mixture was vortexed for 3 min at 1500 r/min, and centrifuged at 4° C., 4000 g for 5 min; to 100 μL supernatant, 50 μL 0.1% formic acid-water was added; the resultant mixture was mixed homogeneously under vortexing and analyzed by LC-MS/MS. Cerebrospinal fluid sample was treated by the same way as the homogenated brain tissue sample.

[2] = PK in Colo-205 subcutaneous tumor model of BALB/c nude mouse; format: in vivo; settings: female, plasma, Colo-205 tumor-bearing nude mouse, PO QD 22 days, after last administration
Protocol: Test animal: female nude mouse (BALB/c), 8 mice/dose group/test compound, weight: 19-27 g/mouse.
COLO205 cancer cells were cultured in RPMI-1640 medium containing inactivated 10% fetal bovine serum, 100 U/mL penicillin, 100 μg/mL streptomycin and 2 mM glutamine, in a 37° C., 5% CO2 incubator. The initial concentration of cell culture was 5×10^5 cells/mL, and the cells were transferred to other bottles every 3 or 4 days and passaged. Tumor cells in exponential growth phase were used for in vivo tumor seeding.
COLO205 tumor cells suspended in PBS were seeded subcutaneously to right lateral thorax of experimental animal at 1×10^7 cells/0.1 mL, and the animal was sacrificed when the tumor grew to a volume of 800 mm^3 to 1000 mm^3; under aseptic conditions, tumors were peeled off, and necrotic tissues were removed; the well-grown tumor tissues were selected; the tumor cells were isolated and subjected to primary culture and proliferation, and then were subcutaneously seeded to animal. The tumor cells were passaged for two generations in mice by this method, and the primary culture cells were seeded subcutaneously to right lateral thorax of experimental animal, at 5×10^6 cells/0.1 mL per animal. When tumor grew to a volume of about 100 mm^3, the animals were grouped and administered. For oral administration, the administration volume is 0.1 mL/10 g body weight of animal.
Blood collection: blood was collected from intraocular canthus. After the last administration (22th Day) of control agent and compound 1, blood/tumor was collected at the same time points, wherein 8 nude mice for each dose group were divided into A and B groups
A group (No. 1-4): blood was collected at 15 min, 1 h and 2 h, and the mouse was sacrificed after blood collection at 2 h;
B group (No. 5-8): blood was collected at 4 h, 8 h and 24 h, and the mouse was sacrificed after blood collection at 24 h;
100 μL whole blood at each time point was collected and added to an anticoagulation tube containing K2EDTA, and centrifuged at 4500 r/min at 4° C. in a high speed centrifuge for 5 min to separate the plasma; the plasma was stored in a refrigerator at −80° C.
The plasma samples of control agent and compound 1 were analyzed by precipitation of protein: to 50 μL plasma, 150 μL internal standard (acetonitrile solution containing 50 ng/mL dexamethasone) was added; the resultant mixture was vortexed at 1500 r/min for 3 min, and centrifuged at 4000 r/min for 20 min; to 100 μL supernatant, 100 μL water was added; the resultant mixture was mixed homogeneously under vortexing and analyzed by LC-MS/MS.

[3] = Linear pharmacokinetics in rat (PO); format: in vivo, male SD rat; settings: for AUC(0-t) / Cmax / Tmax: male, SD, plasma
Protocol: Test animal: male SD rat, 3 rats/administration dose/test compound, weight: 200-240 g/rat.
100 μL whole blood was collected from caudal vein at each time point, added to an anticoagulation tube containing K2EDTA, and centrifuged at 8000 r/min in a high speed centrifuge for 6 min to separate the plasma; the plasma was stored in a refrigerator at −80° C.
The plasma samples of control agent and compound 1 were analyzed by precipitation of protein: to 30 μL plasma, 200 μL internal standard (acetonitrile solution containing 50 ng/mL PD0332991, the formula of which is
[drawing 62] prepared by referring to the method in Patent CN101001857A) was added; the resultant mixture was vortexed for 10 min at 1500 r/min, and centrifuged for 20 min at 4000 r/min; to 100 μL supernatant, 100 μL water was added; the resultant mixture was mixed homogeneously under vortexing and analyzed by LC-MS/MS.

SMILES | AUC(0-t) ([1]; dose 30, brain tissue) [ng·h/mL] | Cmax ([1]; dose 30, brain tissue) [ng/mL] | Tmax ([1]; dose 30, brain tissue) [h] | AUC(0-t) ([1]; dose 30, cerebrospinal fluid) [ng·h/mL] | Cmax ([1]; dose 30, cerebrospinal fluid) [ng/mL] | Tmax ([1]; dose 30, cerebrospinal fluid) [h] | AUC(0-t) ([1]; dose 30, plasma) [ng·h/mL] | Cmax ([1]; dose 30, plasma) [ng/mL] | Tmax ([1]; dose 30, plasma) [h] | AUC(0-t) ([2]; 25 mg/kg) [ng·h/mL] | Cmax ([2]; 25 mg/kg) [ng/mL] | Tmax ([2]; 25 mg/kg) [h] | AUC(0-t) ([2]; 100 mg/kg) [ng·h/mL] | Cmax ([2]; 100 mg/kg) [ng/mL] | Tmax ([2]; 100 mg/kg) [h] | AUC(0-t) ([3]; 15 mg/kg) [ng·h/mL] | Cmax ([3]; 15 mg/kg) [ng/mL] | Tmax ([3]; 15 mg/kg) [h] | AUC(0-t) ([3]; 45 mg/kg) [ng·h/mL] | Cmax ([3]; 45 mg/kg) [ng/mL] | also measured
CCN1CCN(Cc2cnc(Nc3cc(-c4cc(F)c5nc(C)n(C(C)C)c5c4)c(F)cn3)nc2)CC1 [Compound 1, 5-((4-ethylpiperazin-1-yl)methyl)-N-(5-fluoro-4-(4-fluoro-1-isopropyl-2-methyl-1H-benzo[d]imidazol-6-yl)pyridin-2-yl)pyrimidin-2-amine] | 12100 | 535 | 4 | 1290 | 106 | 4 | 49200 | 2610 | 4 | 12300 | 1140 | 2 | 48300 | 2420 | 8 | 12600 | 941 | 4 | 37700 | 1580 | linear pharmacokinetic properties ([3]; 15-135 mg/kg, AUClast increases with dose in a linear manner): good linear pharmacokinetic properties; Tmax ([3]; 45 mg/kg): 4 h; AUC(0-t) ([3]; 135 mg/kg): 136000 ng·h/mL; Cmax ([3]; 135 mg/kg): 2410 ng/mL; Tmax ([3]; 135 mg/kg): 24 h
CCN1CCN(Cc2ccc(Nc3ncc(F)c(-c4cc(F)c5nc(C)n(C(C)C)c5c4)n3)nc2)CC1 [LY2835219, reference compound] | 18100 | 673 | 4 | 451 | 11.8 | 4 | 40500 | 1500 | 4 | 9120 | 733 | 4 | 23000 | 1080 | 8 | 9690 | 504 | 4 | 32600 | 860 | Tmax ([3]; 45 mg/kg): 4 h; AUC(0-t) ([3]; 135 mg/kg): 97600 ng·h/mL; Cmax ([3]; 135 mg/kg): 1370 ng/mL; Tmax ([3]; 135 mg/kg): 24 h
